From ChEMBL document CHEMBL6109180, “De Novo-Designed APC/C Inhibitors Provide a Rationale for Targeting RING-Type E3 Ubiquitin Ligases” (J Med Chem, 2025)
One block for each molecule: values may come before it. Calls of active or inactive are those of the source. The calls are words filed in the database; no cut-off is given here. Numbered stars: 1 amine (or outer) side, 2 acyl side, 3 side chain; on linkers, the order of the positions; unused ones are H or OH. Bridge positions count the residues as written; N and C are the ends. Square brackets hold non-standard residues; d marks the D form. Peptide text beside a SMILES is read from it. I, II: the chains in the order shown. X1 = O=C(O)CC[C@@H](C(=O)[*:2])N(CCOCCOCCOCCOCCOCCO[*:3])[*:1]; R8 = C=CCCCCCC[C@@](C)(N)C(=O)O; S5 = C=CCCC[C@](C)(N)C(=O)O; Pra = C#CC[C@H](N)C(=O)O

Experiments:
Homo sapiens = organism: Homo sapiens; assay: Potency index, ratio of Apcin IC50 to test compound IC50 for inhibition of APC/C (unknown origin)
HeLa [1] = assay: (§1) Inhibition of recombinant APC/C/cdc20 (unknown origin) in metaphase-synchronized human HeLa cells co-expressing GST-tagged UBA1/UBE2D1/methylated ubiquitin using cyclin B1 as substrate at 100 uM measured after 45 mins in presence of ATP by immuno-precipitation method
[2] = Inhibition of recombinant APC/C/cdc20 (unknown origin) in metaphase-synchronized human HeLa cells co-expressing GST-tagged UBA1/UBE2C/methylated ubiquitin using RD680-labeled securin as substrate measured after 45 mins in presence of ATP by immuno-precipitation method
HeLa [3] = assay: Inhibition of recombinant APC/C/cdc20 (unknown origin) in metaphase-synchronized human HeLa cells co-expressing GST-tagged UBA1/UBE2C/methylated ubiquitin using cyclin B1 as substrate at 100 uM measured after 45 mins in presence of ATP by immuno-precipitation method
HeLa [4] = assay: as §1, with “UBA1/UBE2S/methylated” for “UBA1/UBE2D1/methylated”, “substrate assessed as decrease in UBE2S-driven chain elongation” for “substrate”; format: cell-based
HeLa [5] = assay: Inhibition of recombinant APC/C/cdc20 (unknown origin) in metaphase-synchronized human HeLa cells co-expressing GST-tagged UBA1/UBE2C/methylated ubiquitin using RD680-labeled securin as substrate at 25 uM measured after 45 mins in presence of ATP by immuno-precipitation method relative to control
HeLa [6] = assay: Inhibition of recombinant APC/C/cdc20 (unknown origin) in metaphase-synchronized human HeLa cells co-expressing GST-tagged UBA1/UBE2S/methylated ubiquitin using cyclin B1 as substrate at 100 uM measured after 45 mins in presence of ATP by immuno-precipitation method; format: cell-based
[7] = Non-competitve inhibition of recombinant APC/C/cdc20 (unknown origin) in metaphase-synchronized human HeLa cells co-expressing GST-tagged UBA1/UBE2C/methylated ubiquitin using RD680-labeled securin as substrate measured after 45 mins in presence of ATP by immuno-precipitation method; format: cell-based
[8] = molecular target: T1, Ubiquitin-conjugating enzyme E2 C (Homo sapiens) (UniProt O00762); assay: Inhibition of UBE2C (unknown origin) auto-ubiquitination at 100 uM measured after 45 mins in presence of UBA1/His6-ubiquitin/ATP by SDS-PAGE analysis
T1 sequence (whole entry): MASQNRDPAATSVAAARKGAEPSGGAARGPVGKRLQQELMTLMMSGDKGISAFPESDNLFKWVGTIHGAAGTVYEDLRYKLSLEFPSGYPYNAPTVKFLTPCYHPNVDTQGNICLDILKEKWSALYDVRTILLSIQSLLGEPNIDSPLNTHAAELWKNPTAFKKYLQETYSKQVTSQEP

HeLa [9] = assay: Inhibition of recombinant APC/C/cdc20 (unknown origin) in metaphase-synchronized human HeLa cells co-expressing GST-tagged UBA1/UBE2C/methylated ubiquitin using RD680-labeled securin as substrate at 100 uM measured after 45 mins in presence of ATP by immuno-precipitation method; format: cell-based
TERT-RPE1 = assay: Effect on time length of mitosis in human RPE-1 cells at 50 uM measured for 10 to 24 hrs by bright field microscopy; format: functional, cell-based; settings: time 10-24 hrs
[10] = molecular target: T2, Polycomb complex protein BMI-1 (Homo sapiens) (UniProt P35226); assay: Binding affinity to BMI1 in asynchronously growing human HeLa cells incubated for 30 mins by pull down assay; format: cell-based
T2 sequence (whole entry): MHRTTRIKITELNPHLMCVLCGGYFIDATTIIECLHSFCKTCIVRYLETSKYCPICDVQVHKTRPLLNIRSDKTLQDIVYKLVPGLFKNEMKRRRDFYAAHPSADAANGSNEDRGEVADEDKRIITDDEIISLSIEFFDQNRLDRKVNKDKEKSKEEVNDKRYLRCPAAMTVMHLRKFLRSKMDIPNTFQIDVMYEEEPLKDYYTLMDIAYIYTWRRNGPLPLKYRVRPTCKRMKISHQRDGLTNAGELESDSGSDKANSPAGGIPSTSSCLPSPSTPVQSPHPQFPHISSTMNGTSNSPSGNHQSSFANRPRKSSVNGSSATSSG

[11] = molecular target: Breast cancer type 1 susceptibility protein (Homo sapiens) (UniProt P38398); assay: Binding affinity to BRCA1 in asynchronously growing human HeLa cells incubated for 30 mins by pull down assay; format: cell-based
Sequence of Breast cancer type 1 susceptibility protein (Homo sapiens) (P38398 whole entry, looked up): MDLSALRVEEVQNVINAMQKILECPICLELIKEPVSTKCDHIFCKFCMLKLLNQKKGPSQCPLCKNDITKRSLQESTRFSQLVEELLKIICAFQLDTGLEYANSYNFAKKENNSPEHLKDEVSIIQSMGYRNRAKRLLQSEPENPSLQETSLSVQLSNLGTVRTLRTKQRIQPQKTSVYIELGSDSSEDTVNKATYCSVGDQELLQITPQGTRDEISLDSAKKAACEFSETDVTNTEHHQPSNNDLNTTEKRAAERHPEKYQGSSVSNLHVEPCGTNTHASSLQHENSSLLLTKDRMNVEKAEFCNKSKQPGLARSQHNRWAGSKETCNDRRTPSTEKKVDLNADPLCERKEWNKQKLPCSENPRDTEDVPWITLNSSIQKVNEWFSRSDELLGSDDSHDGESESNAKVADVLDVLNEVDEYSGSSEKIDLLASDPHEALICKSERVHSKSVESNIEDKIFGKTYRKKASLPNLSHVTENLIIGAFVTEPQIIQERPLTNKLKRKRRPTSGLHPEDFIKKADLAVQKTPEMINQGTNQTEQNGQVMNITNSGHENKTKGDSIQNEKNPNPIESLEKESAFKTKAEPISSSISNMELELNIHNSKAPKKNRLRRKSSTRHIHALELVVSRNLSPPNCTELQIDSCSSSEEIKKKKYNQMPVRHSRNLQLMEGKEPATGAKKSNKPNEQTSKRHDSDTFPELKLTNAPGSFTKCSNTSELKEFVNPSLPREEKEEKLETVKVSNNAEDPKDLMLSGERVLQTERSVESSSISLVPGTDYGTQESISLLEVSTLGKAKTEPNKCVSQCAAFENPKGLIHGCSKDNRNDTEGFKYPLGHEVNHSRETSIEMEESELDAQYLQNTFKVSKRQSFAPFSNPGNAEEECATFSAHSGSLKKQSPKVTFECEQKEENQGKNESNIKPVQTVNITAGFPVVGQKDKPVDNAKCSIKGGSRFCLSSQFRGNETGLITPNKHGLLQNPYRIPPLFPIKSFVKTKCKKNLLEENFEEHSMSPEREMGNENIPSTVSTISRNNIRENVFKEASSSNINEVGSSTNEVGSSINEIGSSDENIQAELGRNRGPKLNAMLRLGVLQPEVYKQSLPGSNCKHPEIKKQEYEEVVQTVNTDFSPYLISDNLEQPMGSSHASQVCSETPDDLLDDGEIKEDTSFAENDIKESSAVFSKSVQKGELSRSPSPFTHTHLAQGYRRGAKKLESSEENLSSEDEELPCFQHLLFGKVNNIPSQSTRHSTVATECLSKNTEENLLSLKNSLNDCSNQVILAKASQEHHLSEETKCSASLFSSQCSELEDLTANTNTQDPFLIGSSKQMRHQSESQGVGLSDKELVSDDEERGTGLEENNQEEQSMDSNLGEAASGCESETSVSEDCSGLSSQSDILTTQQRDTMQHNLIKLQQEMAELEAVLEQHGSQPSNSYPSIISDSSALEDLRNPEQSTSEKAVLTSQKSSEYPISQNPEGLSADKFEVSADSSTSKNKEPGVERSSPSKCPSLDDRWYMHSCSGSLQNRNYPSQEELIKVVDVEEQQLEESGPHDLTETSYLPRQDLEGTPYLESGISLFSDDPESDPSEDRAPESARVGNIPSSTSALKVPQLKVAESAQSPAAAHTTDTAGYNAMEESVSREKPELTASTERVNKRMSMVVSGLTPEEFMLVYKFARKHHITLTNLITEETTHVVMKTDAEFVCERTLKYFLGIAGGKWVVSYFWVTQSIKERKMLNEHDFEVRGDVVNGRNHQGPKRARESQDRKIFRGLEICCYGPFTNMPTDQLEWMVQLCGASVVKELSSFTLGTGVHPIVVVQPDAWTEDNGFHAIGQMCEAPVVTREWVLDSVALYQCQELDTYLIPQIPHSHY

[12] = molecular target: Baculoviral IAP repeat-containing protein 2 (Homo sapiens) (UniProt Q13490); assay: Binding affinity to c-IAP1 in asynchronously growing human HeLa cells incubated for 30 mins by pull down assay; format: cell-based
Sequence of Baculoviral IAP repeat-containing protein 2 (Homo sapiens) (Q13490 whole entry): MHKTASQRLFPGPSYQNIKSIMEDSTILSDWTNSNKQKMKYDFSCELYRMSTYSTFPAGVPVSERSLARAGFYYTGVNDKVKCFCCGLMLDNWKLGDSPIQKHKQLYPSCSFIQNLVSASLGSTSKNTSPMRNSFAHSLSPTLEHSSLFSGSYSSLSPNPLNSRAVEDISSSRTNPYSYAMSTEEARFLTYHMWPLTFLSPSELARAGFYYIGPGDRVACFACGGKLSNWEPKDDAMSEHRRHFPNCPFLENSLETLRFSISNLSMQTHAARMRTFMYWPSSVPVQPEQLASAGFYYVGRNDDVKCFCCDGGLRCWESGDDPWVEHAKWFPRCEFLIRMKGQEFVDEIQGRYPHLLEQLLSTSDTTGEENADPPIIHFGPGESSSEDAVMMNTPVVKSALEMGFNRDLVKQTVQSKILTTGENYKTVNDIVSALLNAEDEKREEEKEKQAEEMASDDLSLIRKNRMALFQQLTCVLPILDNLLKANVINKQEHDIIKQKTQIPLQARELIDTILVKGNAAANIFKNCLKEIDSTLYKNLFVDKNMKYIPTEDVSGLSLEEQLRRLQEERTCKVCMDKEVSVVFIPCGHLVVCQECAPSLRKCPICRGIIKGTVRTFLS

[13] = molecular target: E3 ubiquitin-protein ligase RBX1 (Homo sapiens) (UniProt P62877); assay: Binding affinity to RBX1 in asynchronously growing human HeLa cells incubated for 30 mins by pull down assay; format: cell-based
Sequence of E3 ubiquitin-protein ligase RBX1 (Homo sapiens) (P62877 whole entry, looked up): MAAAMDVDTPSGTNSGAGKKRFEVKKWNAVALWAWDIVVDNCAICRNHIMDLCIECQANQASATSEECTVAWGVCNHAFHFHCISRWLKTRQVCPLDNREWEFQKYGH

[14] = molecular target: E3 ubiquitin-protein ligase CBL (Homo sapiens) (UniProt P22681); assay: Binding affinity to c-CBL in asynchronously growing human HeLa cells incubated for 30 mins by pull down assay; format: cell-based
[15] = molecular target: Anaphase-promoting complex subunit 11 (Homo sapiens) (UniProt Q9NYG5); assay: Binding affinity to APC11 in asynchronously growing human HeLa cells incubated for 30 mins by pull down assay; format: cell-based
Sequence of Anaphase-promoting complex subunit 11 (Homo sapiens) (Q9NYG5 whole entry, one chain of several): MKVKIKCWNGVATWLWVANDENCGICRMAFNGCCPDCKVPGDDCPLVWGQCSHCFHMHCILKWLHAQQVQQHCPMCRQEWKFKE

[16] = molecular target: E3 ubiquitin-protein ligase Mdm2 (Homo sapiens) (UniProt Q00987); assay: Binding affinity to MDM2 in asynchronously growing human HeLa cells incubated for 30 mins by pull down assay; format: cell-based
Sequence of E3 ubiquitin-protein ligase Mdm2 (Homo sapiens) (Q00987 whole entry, looked up): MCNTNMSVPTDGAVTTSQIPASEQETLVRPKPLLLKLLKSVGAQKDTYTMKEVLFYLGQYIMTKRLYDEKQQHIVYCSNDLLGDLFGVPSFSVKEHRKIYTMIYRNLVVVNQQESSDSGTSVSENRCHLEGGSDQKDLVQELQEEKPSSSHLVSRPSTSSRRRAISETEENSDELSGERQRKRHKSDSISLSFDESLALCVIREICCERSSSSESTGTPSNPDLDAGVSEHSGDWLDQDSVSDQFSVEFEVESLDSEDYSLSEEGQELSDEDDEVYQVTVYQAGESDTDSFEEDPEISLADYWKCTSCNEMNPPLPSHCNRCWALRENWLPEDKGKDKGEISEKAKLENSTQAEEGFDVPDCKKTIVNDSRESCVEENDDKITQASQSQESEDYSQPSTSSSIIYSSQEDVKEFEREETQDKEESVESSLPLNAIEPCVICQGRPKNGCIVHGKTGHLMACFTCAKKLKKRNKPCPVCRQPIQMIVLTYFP

HeLa [17] = assay: Binding affinity to APC2 in asynchronous human HeLa cells incubated for 2 hrs by pull down assay; format: cell-based
HeLa [18] = assay: Induction of mitosis prolongation in human HeLa cells assessed as time taken at 50 uM measured for 10 to 48 hrs by live cell imaging analysis; format: functional; settings: time 10-48 hrs
[19] = Drug localization in cytoplasm of human HeLa cells at 50 uM incubated for 10 hrs by AF488 dye based analysis; format: ADME, subcellular
[20] = molecular target: Anaphase-promoting complex subunit 11 (Homo sapiens) (UniProt Q9NYG5); assay: Binding affinity to APC11 in asynchronous human HeLa cells incubated for 2 hrs by pull down assay; format: cell-based
[21] = Drug localization in nucleoplasm of human HeLa cells at 50 uM incubated for 10 hrs by AF488 dye based analysis; format: ADME, subcellular
[22] = Drug localization in nucleus of human HeLa cells at 50 uM incubated for 4 to 10 hrs by AF488 dye based analysis; format: ADME, subcellular; settings: time 4-10 hrs

- Ratio IC50 (Homo sapiens): 4.5
- IC50 [2]: 1.96 µM
- inhibition [8]: inactive
Compound: CC[C@H](C)[C@@H]1NC(=O)[C@H](CCC(=O)O)NC(=O)[C@H](CCCCN)NC(=O)[C@H]([C@@H](C)CC)NC(=O)[C@](C)(NC(=O)[C@H](Cc2c[nH]c3ccccc23)NC(=O)[C@H](Cc2c[nH]c3ccccc23)NC(=O)[C@H](CCC(=O)O)NC(C)=O)CCCCCC/C=C\CCC[C@@](C)(C(=O)N[C@@H](CCCNC(=N)N)C(=O)N[C@@H](CCCNC(=N)N)C(=O)N[C@@H](C)C(N)=O)NC(=O)[C@H](CCCNC(=N)N)NC(=O)[C@H](CCC(N)=O)NC1=O (Ac-EWW[R8]IKEIQR[S5]RRA-NH2; staple (Z) 4-11)
- inhibition (HeLa [1]): Active
- inhibition (HeLa [3]): Active
- inhibition (HeLa [4]): 100%
- inhibition (HeLa [5]): > 80%
- inhibition (HeLa [6]): Active
- Ki [7]: 5.03 µM
- inhibition (HeLa [9]): Active; Compound Exerted Better Inhibitory Effect Than Tame
- Activity (TERT-RPE1): No effect

- Activity [10]: inactive
- Activity [11]: inactive
- Activity [12]: inactive
- Activity [13]: inactive
- Activity [14]: Active
- Activity [15]: Active
- Activity [16]: Active
Compound: C#CC[C@H](NC(C)=O)C(=O)N[C@@H](CCCNC(=N)N)C(=O)N[C@H]1CSSC[C@@H](C(=O)N[C@@H](CCCNC(=N)N)C(N)=O)NC(=O)[C@H](Cc2c[nH]c3ccccc23)NC(=O)[C@H](Cc2ccccc2)NC(=O)[C@H]([C@@H](C)O)NC(=O)[C@H](CCCNC(=N)N)NC(=O)[C@@H]2CCCN2C(=O)CNC(=O)[C@H](Cc2c[nH]c3ccccc23)NC(=O)[C@H](Cc2cnc[nH]2)NC1=O (Ac-[Pra]RCHWGPRTFWCR-NH2; disulfide 3-12)

- Drug uptake [19]: Active
- Activity [20]: inactive
- Drug uptake [21]: Active
- Drug uptake [22]: Active
Compound: C#CC[C@H](NC(=O)[C@H](Cc1c[nH]c2ccccc12)NC(=O)[C@H](CCC(=O)O)NCCOCCOCCOCCOCCOCCOC(=O)CNC(=O)[C@H](Cc1ccccc1)NC(=O)[C@H](Cc1c[nH]c2ccccc12)NC(=O)[C@H](Cc1ccccc1)NC(=O)CNC(C)=O)C(=O)N[C@]1(C)CCCCCC/C=C\CCC[C@@](C)(C(=O)N[C@@H](CCCNC(=N)N)C(=O)N[C@@H](CCCNC(=N)N)C(=O)N[C@@H](C)C(N)=O)NC(=O)[C@H](CCCNC(=N)N)NC(=O)[C@H](CCC(N)=O)NC(=O)[C@H]([C@@H](C)CC)NC(=O)[C@H](CCC(=O)O)NC(=O)[C@H](CCCCN)NC(=O)[C@H]([C@@H](C)CC)NC1=O (I: H-[X1]W[Pra][R8]IKEIQR[S5]RRA-NH2 / II: Ac-GFWFG; ester I:1-II:C; staple (Z) I:4-I:11)
- Activity (HeLa [17]): inactive
- Time (HeLa [18]): ~74 min
